Values of other authors, collected in patent publication US20130316926A1, “METHOD FOR THE MONITORING OF SMOKING CESSATION COMPLIANCE AND RECOVERY, THERAPEUTIC INTERVENTION, AND RISK MANAGEMENT” (Health Diagnostic Laboratory, Inc., priority 2012, published 2013).
Read-outs that look alike come from different tables or passages of the source.

How the values were obtained:
[1] = for urinary concentration: tobacco user, regardless of nicotine replacement therapy
[2] = for t½: b55, cotinine value is an average

Row | Structure (SMILES) | Concentration of Urinary: Non-tobacco user with no passive exposure [1] | Concentration of Urinary: Non-tobacco user with Passive exposure [1] | Concentration of Urinary: Tobacco user after 2 weeks' abstinence [1] | concentration in urine of tobacco users [1] | half-life [2] | urinary concentration [1] | half-life ([2]; b40, Benowitz 1986) | t½ [2] | time to reach the central nervous system ([2]; after tobacco smoke inhalation) | fraction of circulating nicotine metabolized to cotinine ([2]; by cytochrome P450 and aldehyde oxidase) | distribution half-life ([2]; in vivo) | elimination half-life ([2]; in vivo) | nicotine leaving the liver in metabolite forms ([2]; on average) | nicotine that enters the liver and exits unchanged ([2]; on average)
1 | CN1C(=O)[C@H](O)C[C@H]1c1cccnc1 (relative stereo) [trans-3-hydroxycotinine] | <50 ng/mL | <50 ng/mL | <120 ng/mL | 3,000-25,000 ng/mL | 10 h | – | – | – | – | – | – | – | – | –
2 | c1cncc([C@@H]2CCCCN2)c1 [Anabasine] | <2.0 ng/mL | <2.0 ng/mL | <2.0 ng/mL | – | – | > 10 ng/mL | – | – | – | – | – | – | – | –
3 | CN1C(=O)CC[C@H]1c1cccnc1 [Cotinine] | <5.0 ng/mL | <20 ng/mL | <50 ng/mL | 1,000-8,000 ng/mL | 15 h | – | about 20 hrs | 16 h | – | – | – | – | – | –
4 | CN1CCCC1c1cccnc1 (centres unmarked) [Nicotine] | <2.0 ng/mL | <20 ng/mL | <30 ng/mL | 1,000-5,000 ng/mL | 2 h | – | – | 2 h | ≤ 20 s | 70% | 8 min | 2 h | 70% | 30%
5 | c1cncc([C@@H]2CCCN2)c1 [Nornicotine] | <2.0 ng/mL | <2.0 ng/mL | <2.0 ng/mL | – | – | > 30 ng/mL | – | – | – | – | – | – | – | –
